Data taken from patent US9884063B2, “Amido-substituted azole compounds” (Bayer Pharma Aktiengesellschaft, priority 2014, dated 2018).

What was measured:
[1] = test system: wildtype Wnt signaling cascade; experiment: HEK293 TOP Assay (Super TopFlash luciferase reporter, Wnt-3a stimulated); assay type: cell-based; settings: Homo sapiens, HEK293, 16 h
Procedure, shortened: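 Compounds (50 μM down to 15 nM, 3.16-fold steps, in CAFTY buffer pH 7.4, 2 mM Ca2+, 0.01% BSA) tested in parallel on TOP and FOP HEK293 reporter lines to define selective wildtype Wnt inhibition. Pathway driven by recombinant human Wnt-3a applied at 2500–5 ng/ml in two-fold dilutions.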

[2] = molecular target: T1, TNKS2 (Homo sapiens, UniProt Q9H2K2); experiment: Modified TNKS2 Assay 2 (auto-parsylation, [3H]-NAD+ SPA); assay type: biochemical; settings: 6 nM TNKS2, 96 well
T1 sequence (Q9H2K2 1-1166): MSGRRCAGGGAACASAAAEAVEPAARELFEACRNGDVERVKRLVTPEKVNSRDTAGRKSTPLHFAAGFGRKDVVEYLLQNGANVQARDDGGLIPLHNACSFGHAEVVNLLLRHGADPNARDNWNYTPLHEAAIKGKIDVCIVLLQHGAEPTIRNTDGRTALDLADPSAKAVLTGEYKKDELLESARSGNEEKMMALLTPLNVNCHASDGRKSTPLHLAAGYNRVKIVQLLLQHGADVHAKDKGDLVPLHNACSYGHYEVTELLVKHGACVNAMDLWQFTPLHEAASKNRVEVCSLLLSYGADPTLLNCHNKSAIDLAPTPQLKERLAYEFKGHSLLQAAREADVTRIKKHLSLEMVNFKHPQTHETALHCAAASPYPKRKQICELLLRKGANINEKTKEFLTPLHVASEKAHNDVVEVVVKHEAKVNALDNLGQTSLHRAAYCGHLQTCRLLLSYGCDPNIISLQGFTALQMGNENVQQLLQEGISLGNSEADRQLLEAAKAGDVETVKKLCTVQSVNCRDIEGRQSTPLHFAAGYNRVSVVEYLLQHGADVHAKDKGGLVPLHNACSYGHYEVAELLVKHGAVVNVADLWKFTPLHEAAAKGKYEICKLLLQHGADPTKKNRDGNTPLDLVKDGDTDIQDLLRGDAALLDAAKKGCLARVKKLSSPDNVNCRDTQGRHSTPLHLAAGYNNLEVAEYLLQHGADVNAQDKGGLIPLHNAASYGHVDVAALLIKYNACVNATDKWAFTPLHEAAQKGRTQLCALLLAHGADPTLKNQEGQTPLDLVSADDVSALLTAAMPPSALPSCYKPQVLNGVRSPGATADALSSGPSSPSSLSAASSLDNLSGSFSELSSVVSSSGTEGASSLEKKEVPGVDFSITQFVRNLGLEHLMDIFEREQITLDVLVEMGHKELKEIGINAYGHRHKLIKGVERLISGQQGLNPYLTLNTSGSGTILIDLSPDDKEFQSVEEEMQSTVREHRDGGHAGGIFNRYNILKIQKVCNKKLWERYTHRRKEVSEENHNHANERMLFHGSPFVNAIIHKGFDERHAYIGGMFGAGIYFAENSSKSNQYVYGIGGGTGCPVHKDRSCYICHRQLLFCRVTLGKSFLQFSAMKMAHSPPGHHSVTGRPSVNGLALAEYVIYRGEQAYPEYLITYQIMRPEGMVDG
Experimental: The potency of selected compounds according to the invention was assessed applying an modified in vitro inhibition assay. Here, the TNKS2 catalyzed NAD^+-dependent ribosylation of the enzyme itself (auto-parsylation) was detected using [^3H]-NAD^+ as substrate and applying the scintillation proximity assay (SPA) method to detect tritium-labeled, parsylated TNKS2. The intensity of the readout signal is proportional to the incorporated [^3H]-NAD^+. Inhibition of TNKS2 leads to a decreased incorporation of [^3H]-NAD^+ and consequently to a lower readout signal intensity. The concentration of a test compound which inhibits the enzyme activity by 50% (corresponds to half of the normed readout signal intensity) is reported as IC50.
The assay was conducted in a 96 well MTP format with the identical TNKS2 enzyme sample and NAD^+ sample as in the histone ribosylation assay with the following modifications: TNKS2 enzyme sample was diluted with a modified assay buffer (50 mM MES pH 7.0, 1 mM DTT, 0.01% Triton X-100) to a final concentration of 6 nM TNKS2 and 10×NAD^+ solution was diluted with the modified assay buffer (s. above) to a final 0.445×NAD^+ solution doped with 100 Bq/ul [^3H]-NAD^+ [Catalog #NET443H050UC, Perkin Elmer, Waltham, Mass., USA]. Substrate solution (10 ul) was incubated with different test compound concentrations (2.5 ul in 10% DMSO in modified assay buffer) or control (2.5 ul 10% DMSO in modified assay buffer only) and enzyme (10 ul) over night at room temperature. Incorporated tritium was measured after addition of 50 ul SPA beads (1 mg/ml) [Catalog #RPNQ0095 20 mg/ml, Perkin Elmer, Waltham, Mass., USA; diluted 1:10 with Dulbecco's phosphate buffered saline, PBS Catalog #D8537, Sigma-Aldrich, Steinheim, Germany] and detection of the photon emission with a beta count plate reader [Wallac MicroBeta®, Perkin Elmer, Waltham, Mass., USA].

[3] = HEK293 TOP reporter cell line, Wnt-3a at EC50, 16 hours incubation, compound dilution series 50 μM to 15 nM
[4] = HEK293 TOP reporter cells, Wnt3a at EC50, 16 hours, luciferase

Row | Compound | IC50 [1, 3] | IC50 [2] | IC50 [1, 4]
1 | O=C(NCCN1CCCCC1)c1nc[nH]c1C(=O)Nc1ccc(NC(=O)c2c(F)cc(F)cc2Cl)cc1 [Example 119, N^5-{4-[(2-chloro-4,6-difluorobenzoyl)amino]phenyl}-N^4-[2-(piperidin-1-yl)ethyl]-1H-imidazole-4,5-dicarboxamide] | 70 nM | 5 nM | –
2 | CN(C)C(=O)c1nc[nH]c1C(=O)Nc1ccc(NC(=O)c2ccc(F)cc2Cl)cc1 [Example 24, N^5-{4-[(2-chloro-4-fluorobenzoyl)amino]phenyl}-N^4,N^4-dimethyl-1H-imidazole-4,5-dicarboxamide] | 2130 nM | 3400 nM | 2050 nM
3 | CNC(=O)c1nc[nH]c1C(=O)Nc1ccc(NC(=O)c2cc(OCCN3CCCCC3)ccc2Cl)cc1 [Example 125, N^5-[4-({2-chloro-5-[2-(piperidin-1-yl)ethoxy]benzoyl}amino)phenyl]-N^4-methyl-1H-imidazole-4,5-dicarboxamide] | 4100 nM | > 10000 nM | –
4 | CNC(=O)c1nc[nH]c1C(=O)Nc1ccc(NC(=O)c2ccc(OCCN3CCN(C)CC3)cc2Cl)cc1 [Example 28, N^5-[4-({2-chloro-4-[2-(4-methylpiperazin-1-yl)ethoxy]benzoyl}amino)phenyl]-N^4-methyl-1H-imidazole-4,5-dicarboxamide] | 530 nM | 180 nM | 680 nM
5 | CC1CCN(CC(C)(C)NC(=O)c2[nH]cnc2C(=O)Nc2ccc(NC(=O)c3ccc(F)cc3Cl)cc2)CC1 [Example 155, N^4-{4-[(2-chloro-4-fluorobenzoyl)amino]phenyl}-N^5-[2-methyl-1-(4-methylpiperidin-1-yl)propan-2-yl]-1H-imidazole-4,5-dicarboxamide] | 660 nM | 80 nM | –
6 | COCCNC(=O)c1[nH]cnc1C(=O)Nc1ccc(NC(=O)c2ccc(F)cc2Cl)cc1 [Example 130, N^4-{4-[(2-chloro-4-fluorobenzoyl)amino]phenyl}-N^5-(2-methoxyethyl)-1H-imidazole-4,5-dicarboxamide] | 250 nM | 70 nM | –
7 | CN1CCN(C(C)(C)CNC(=O)c2[nH]cnc2C(=O)Nc2ccc(NC(=O)c3ccc(F)cc3Cl)cc2)CC1 [Example 187, N^4-{4-[(2-chloro-4-fluorobenzoyl)amino]phenyl}-N^5-[2-methyl-2-(4-methylpiperazin-1-yl)propyl]-1H-imidazole-4,5-dicarboxamide] | 350 nM | 100 nM | –
8 | O=C(Nc1ccc(NC(=O)c2nc[nH]c2C(=O)NCCCCN2CCCCC2)cc1)c1ccccc1Cl [Example 189, N^4-{4-[(2-chlorobenzoyl)amino]phenyl}-N^5-[4-(piperidin-1-yl)butyl]-1H-imidazole-4,5-dicarboxamide] | 890 nM | 260 nM | –
9 | CC1CCN(CCNC(=O)c2nc[nH]c2C(=O)Nc2ccc(NC(=O)c3ccc(F)cc3Cl)cc2)CC1 [Example 126, N^5-{4-[(2-chloro-4-fluorobenzoyl)amino]phenyl}-N^4-[2-(4-methylpiperidin-1-yl)ethyl]-1H-imidazole-4,5-dicarboxamide] | 40 nM | 7 nM | –
10 | CC(C)(CN1CCOCC1)NC(=O)c1[nH]cnc1C(=O)Nc1ccc(NC(=O)c2ccc(F)cc2)cc1 [Example 180, N^4-{4-[(4-fluorobenzoyl)amino]phenyl}-N^5-[2-methyl-1-(morpholin-4-yl)propan-2-yl]-1H-imidazole-4,5-dicarboxamide] | 5350 nM | 6900 nM | –
11 | NC(=O)c1nc[nH]c1C(=O)Nc1ccc(NC(=O)c2ccc(F)cc2Cl)cc1 [Example 121] | 270 nM | 70 nM | –
12 | O=C(Nc1ccc(NC(=O)c2nc[nH]c2C(=O)NC2CCOC2)cc1)c1ccc(F)cc1Cl (centres unmarked) [Example 236, N^4-{4-[(2-chloro-4-fluorobenzoyl)amino]phenyl}-N^5-(tetrahydrofuran-3-yl)-1H-imidazole-4,5-dicarboxamide] | 420 nM | 60 nM | –
13 | O=C(Nc1ccc(NC(=O)c2nc[nH]c2C(=O)NCCCN2CCOCC2)cc1)c1ccc(F)cc1 [Example 206, N^4-{4-[(4-fluorobenzoyl)amino]phenyl}-N^5-[3-(morpholin-4-yl)propyl]-1H-imidazole-4,5-dicarboxamide] | 2100 nM | 5300 nM | –
14 | CNC(=O)c1nc[nH]c1C(=O)Nc1ccc(NC(=O)c2ccc(F)cc2Cl)nc1 [Example 16, N^5-{6-[(2-chloro-4-fluorobenzoyl)amino]pyridin-3-yl}-N^4-methyl-1H-imidazole-4,5-dicarboxamide] | 180 nM | 100 nM | 180 nM

Next, values leading:

Row | IC50 [1, 3] | IC50 [2] | IC50 [1, 4] | Compound
15 | 80 nM | 30 nM | – | CNC(=O)c1nc[nH]c1C(=O)Nc1ccc(NC(=O)c2cc(F)c(F)cc2Cl)cc1 [Example 242, N^5-{4-[(2-chloro-4,5-difluorobenzoyl)amino]phenyl}-N^4-methyl-1H-imidazole-4,5-dicarboxamide]
16 | 1350 nM | 1600 nM | 800 nM | CNC(=O)c1nc[nH]c1C(=O)Nc1ccc(NC(=O)c2c(Cl)cccc2Cl)cc1 [Example 26, N^5-{4-[(2,6-dichlorobenzoyl)amino]phenyl}-N^4-methyl-1H-imidazole-4,5-dicarboxamide]
17 | 4050 nM | 3800 nM | – | CNC(=O)c1nc[nH]c1C(=O)Nc1ccc(NC(=O)c2cccc(OC)c2Cl)cc1 [Example 252, N^5-{4-[(2-chloro-3-methoxybenzoyl)amino]phenyl}-N^4-methyl-1H-imidazole-4,5-dicarboxamide]
18 | 7900 nM | > 10000 nM | – | CNC(=O)c1nc[nH]c1C(=O)Nc1ccc(NC(=O)c2ccc(OC(F)F)cc2F)cc1 [Example 251, N^5-(4-{[4-(difluoromethoxy)-2-fluorobenzoyl]amino}phenyl)-N^4-methyl-1H-imidazole-4,5-dicarboxamide]
19 | 1150 nM | 1800 nM | 1250 nM | CNC(=O)c1nc[nH]c1C(=O)Nc1ccc(NC(=O)c2ccccc2C)cc1 [Example 19, N^4-methyl-N^5-{4-[(2-methylbenzoyl)amino]phenyl}-1H-imidazole-4,5-dicarboxamide]
20 | 400 nM | 570 nM | – | CNC(=O)c1nc[nH]c1C(=O)Nc1ccc(NC(=O)c2ncccc2Cl)cc1 [Example 247, N^5-(4-{[(3-chloropyridin-2-yl)carbonyl]amino}phenyl)-N^4-methyl-1H-imidazole-4,5-dicarboxamide]
21 | 920 nM | 220 nM | – | CCOc1ccc(C(=O)Nc2ccc(NC(=O)c3[nH]cnc3C(=O)NC)cc2)c(Cl)c1 [Example 250, N^5-{4-[(2-chloro-4-ethoxybenzoyl)amino]phenyl}-N^4-methyl-1H-imidazole-4,5-dicarboxamide]
